Test results reported in patent EP3158990A1 (Glano Tech Ltd, priority 2015, dated 2017).
Blank lines part the entries; values can stand above or below the compound they belong to.

Experiments:
[1] = Analysis of the mixed solution (infrared nitrite peak, visible UV spectrum); type: physicochemical
[2] = test system: smooth muscle of the corpora cavernosa of rats; assay: Relaxation/contraction of rat corpus cavernosum tissue samples (force displacement transducer); type: cell-based, Wistar-type rats; conditions: for relaxation of the tissue of the corpora cavernosa: tissue constricted with norepinephrine, scalar solutions 10^-5 M to 10^-3 M
Source text: In particular, this model is used for planning experiments aimed at checking the vasodilatory action of NO on vascular smooth muscle cells, since the methodology presented by the authors allows samples of corpus cavernosum tissue to be obtained from rats, on which studies of response to various exogenous molecules can be conducted, to detect their relaxation/contraction effects on smooth muscle cells.
The work we selected and the experimental model on which we based our observations can easily be traced in the following work: G. Italiano, A. Calabrò and F. Pagano of the Urology Institute of Padua University, published in Pharmacology Therapeutics (Vol 30 no 4, 1994 pp. 325-334).
We used 20 adult Wistar-type rats weighing between 175 and 200 g; after having sacrificed the rats we obtained corpus cavernosum tissues as described by the methods and placed these in a Krebs solution (in mM: 118 NaCl, 4,7 KCI, 1,2 KH2PO4, 1,2 MgSO4, 1,5 CaCl2, 25 NaHCO3, 11 glucose).
A single sample was taken from each rat.
The excised tissues were then put in 10 mL Krebs solution and held in place by two metal arms to allow assessment of any changes in the forces observed and assessed by the Grass FT03 model (using a force displacement transducer apparatus to assess the muscle tension of tissues, calibrated in mN). The saline solution containing the tissues (Krebs solution) was kept at pH 7.4 ±0.1 and at 37°C, with oxygenation using a mixture of 95% oxygen and 5% carbon dioxide.

[3] = test system: rat model with type 1 diabetes induced by streptozotocin; assay: In-vivo test of sexual function in diabetic rat models; design: species or system male Wistar rats
Experimental: Next we tested the possible beneficial effects of SNO-pantetheine on sexual function in a rat model with type 1 diabetes induced by streptozotocin, which is typically accompanied by deficit of sexual activity.
In short, male Wistar rats were assigned to a cage (45 × 50 × 35 cm) covered in glass and lit with red light. Training took place every day after 5 pm for about 30 min, and after 10 minutes of acclimatisation a female rat in an oestrogenic phase was introduced into the cage. We then observed the sexual behaviour of diabetic rats vs. the relevant controls by measuring standard parameters (Burnett et al., 1995).

nitrosothiol remains sufficiently stable ([1]; at room temperature, after mixing of phases A and B): more than 1 hour
Compound: CC(C)(CO)[C@@H](O)C(=O)NCCC(=O)NCCSN=O [SNO-pantetheine, S-nitrosothiol of pantetheine]
relaxation of the tissue of the corpora cavernosa [2]: the effect of the norepinephrine was cancelled out
EL (Ejaculation latency) ([3]; Day 0, topical application): 423.2 ± 12.5 s
IF (Introduction frequency) ([3]; Day 0, topical application): 11.2 ± 0.9 number
IL (Introduction latency) ([3]; Day 0, topical application): 52.3 ± 3.9 s
MF (Mating frequency) ([3]; Day 0, topical application): 12.0 ± 1.7 number
ML (Mating latency) ([3]; Day 0, topical application): 42.5 ± 2.9 s
PEI (Post-ejaculatory interval) ([3]; Day 0, topical application): 343.3 ± 10.9 s
EL (Ejaculation latency) ([3]; Day 30, topical application): 375.8 ± 10.8 s
IF (Introduction frequency) ([3]; Day 30, topical application): 14.5 ± 0.8 number
IL (Introduction latency) ([3]; Day 30, topical application): 44.7 ± 4.2 s
MF (Mating frequency) ([3]; Day 30, topical application): 11.2 ± 0.3 number
ML (Mating latency) ([3]; Day 30, topical application): 34.3 ± 2.5 s
PEI (Post-ejaculatory interval) ([3]; Day 30, topical application): 386.2 ± 14.3 s

results of the reaction compared with pantetheine (nitrite consumption, S-nitroso compound formation) ([1]; alpha lipoic acid used as SH group donor instead of pantetheine): comparable results
Compound: O=C(O)CCCCC1CCSS1 (stereo not drawn) [alpha lipoic acid]

Compound: NC[C@H](O)c1ccc(O)c(O)c1 [norepinephrine, reference compound]
constriction ([2]; scalar solutions 10^-8 M to 10^-3 M, Krebs solution pH 7.4, 37°C): about 1.5 mN

Compound: S-nitrosothiol of alpha lipoic acid
relaxation of the tissue of the corpora cavernosa [2]: very similar to that of the S-nitrosothiol of pantetheine
